Laboratory results as given in BigSolDB 2.1.

O=C(NC[C@H]1CN(c2ccc(N3CCOCC3=O)cc2)C(=O)O1)c1ccc(Cl)s1
solubility (mole fraction)
Conditions	278.15 K	283.15 K	288.15 K	293.15 K	298.15 K	303.15 K	308.15 K	313.15 K	318.15 K
in DMAc	0.00978	0.0108	0.0119	0.0131	0.0144	0.0158	0.0173	0.0189	0.0206
in DMF	0.00586	0.00662	0.00747	0.0084	0.00943	0.0106	0.0118	0.0132	0.0147
in THF	0.000205	0.00023	0.000263	0.00029	0.000328	0.000359	0.000401	0.00045	0.000511
in ethyl acetate	5.17e-05	5.93e-05	6.79e-05	7.74e-05	8.81e-05	0.0001	0.000113	0.000128	0.000144
